Publication PMC5895803, “Inhibition of cancer stem cell like cells by a synthetic retinoid” (Nature Communications, 2018)
pIC50, pKd: −log10 of the molar value. Converted amounts (≈) assume the structure as drawn.

How the values were obtained:
[1] = set-up: method as in doi:10.1016/j.jaad.2003.11.002; details: cited from earlier work
B16-F1 TRCs [2] = assay: Colony growth of B16-F1 TRCs in 90-Pa 3D soft fibrin gels; type: cell-based, murine; details: for Rescue of TRC growth from inhibitory effects of WYC-209 by pretreatment: pretreated 3 h before 0.1 or 1 μM WYC-209, day 5; for inhibition at 10 µM: B16-F1, 10 μM; for Rescue of TRC growth from inhibitory effects of Tazarotene by pretreatment: pretreated 3 h before 0.1 or 1 μM Tazarotene
B16-F1 TRCs [3] = assay: Cell cycle analysis (BrdU flow cytometry), S phase of TRCs; type: cell-based, murine; details: 10 μM, 24 hours
Experimental: For Annexin-V and PI staining to quantify cell apoptosis, treated TRCs were isolated from 3D fibrin gel by using 5 mg mL^−1 Dispase II (Sigma), cells were labeled with FITC-conjugated Annexin-V and PI according to the manufacturer’s instruction (Biolegend). Data were acquired on a BD Cantoll (BD biosciences) and analyzed with FlowJo software. For BrdU staining to quantify cell proliferation, cells were labeled with FITC-conjugated anti-BrdU antibody according to the manufacturer’s instruction (FITC BrdU Flow Kit, BD Biosciences) and then data were acquired on an Accuri C6 (BD Biosciences) and analyzed with BD Accuri C6 software.
Supplementary Figure 13. WYC-209 blocks S phase of TRCs. Different cancer cell lines cultured in 3D soft fibrin gel on day 0, then treated with 0.1, 1, or 10 μM WYC-209, WYC-209A, WYC-209B on day 4, isolated cells after 24 hours and labeled with FITC-conjugated anti-BrdU antibody for cell cycle analysis, 10 μM ATRA and Tazarotne as positive controls. (a) Representative images of flow cytometry in different conditions. (b) Quantification of S phase ratio in different conditions. Mean ± s.e.m.; n=3 independent experiments; * P<0.05; ** P<0.01; *** P<0.001 (Student’s t-test).
(1 picture or pasted object on this page, not shown here)

mouse RARs = molecular target: mouse RARs; set-up: method as in earlier work; details: ref 1 (supplement); read-out: published Kd values to mouse RARs; cited from earlier work
Water solubility = details: pH 7.4, aqueous buffer, kinetic from dmso stock
melanoma TRCs = tested on: melanoma TRCs; set-up: method as in PMID 25099074; details: high concentrations (1 and 100 μM); cited from earlier work
CYP 2C19 = molecular target: T1, CYP 2C19 (Homo sapiens, UniProt P33261); assay: Cytochromes enzyme inhibition assay, human liver microsomes; type: in vitro ADME; details: substrate S-mephenytoin (35 µM)
T1 construct: from tissue; host or cells: human liver microsomes

[4] = tested on: human malignant melanoma A375; assay: Colony growth of A375 TRCs in 90-Pa fibrin gels; type: cell-based; details: pretreated 3 h before 0.1 or 1 μM WYC-209, day 7
Experimental: Salmon fibrinogen and thrombin were purchased from Reagent Proteins (CA, USA). 3D fibrin gels were prepared as described previously[5],[6]. In brief, fibrinogen was diluted into 2 mg mL^−1 with T7 buffer (pH 7.4, 50 mM Tris, 150 mM NaCl). Cells were detached from 2D rigid dishes and cell density was adjusted to 10^4 cells per mL. Fibrinogen and cell solution mixture were made by mixing the same volume of fibrinogen solution and cell solution, resulting in 1 mg mL^−1 fibrinogen and 5000 cells per mL in the mixture fibrin gels. A volume of 50 μL cell/fibrinogen mixture was seeded into each well of 96-well plate and mixed well with pre-added 1 μL thrombin (100 U mL^−1). The cell culture plate was then incubated in 37 °C cell culture incubator for 10 min. Finally, 200 μL of DMEM medium containing 10% FBS and antibiotics was added.

[5] = Mus musculus, treated on day 0, day 5

T1 sequence (P33261 whole entry): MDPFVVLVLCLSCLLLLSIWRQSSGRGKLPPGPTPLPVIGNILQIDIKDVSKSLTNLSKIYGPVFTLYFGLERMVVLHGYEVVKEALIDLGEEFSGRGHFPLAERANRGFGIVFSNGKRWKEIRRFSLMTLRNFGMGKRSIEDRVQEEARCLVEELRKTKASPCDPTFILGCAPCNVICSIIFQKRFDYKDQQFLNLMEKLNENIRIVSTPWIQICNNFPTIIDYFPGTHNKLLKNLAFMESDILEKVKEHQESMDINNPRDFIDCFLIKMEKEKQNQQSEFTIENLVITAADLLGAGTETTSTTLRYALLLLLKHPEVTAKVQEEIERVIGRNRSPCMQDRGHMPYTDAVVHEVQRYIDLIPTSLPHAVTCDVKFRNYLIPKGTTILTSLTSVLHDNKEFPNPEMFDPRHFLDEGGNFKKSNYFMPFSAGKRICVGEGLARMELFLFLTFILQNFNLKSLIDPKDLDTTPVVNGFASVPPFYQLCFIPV

CC1(C)CC[S+]([O-])c2ccc(C#Cc3ccc(C(=O)O)cn3)cc21 (centres unmarked) [AGN 190844]
Activity after oxidation of the sulfur atom on Tazarotene [1]: loses its activity

CCc1ccc(C2=CC(C)(C)Sc3ccc(C#Cc4ccc(C(=O)O)cc4)cc32)cc1 [AGN-194310, reference compound]
Rescue of TRC growth from inhibitory effects of WYC-209 by pretreatment (B16-F1 TRCs [2]): rescued the TRC growth

CC1=C(/C=C/C(C)=C/C=C/C(C)=C/C(=O)O)C(C)(C)CCC1 [ATRA, all-trans retinoic acid, reference compound]
Decrease of S phase of TRCs (B16-F1 TRCs [3]): ~55% | inhibition at 10 µM (B16-F1 TRCs [2]; [5]): 80% | pKd (mouse RARs): 9.44 to 9.70

CC1(C)CC=C(c2cnc3ccccc3c2)c2cc(C(=O)Nc3ccc(C(=O)O)cc3)ccc21 [BMS195614, reference compound]
Impact of antagonist alone on TRC growth (B16-F1 TRCs [2]): no impact on TRC growth | Rescue of TRC growth from inhibitory effects of Tazarotene by pretreatment (B16-F1 TRCs [2]): rescuing effect was minimal | Rescue of TRC growth from inhibitory effects of WYC-209 by pretreatment (B16-F1 TRCs [2]): rescued the TRC growth

COCCOCOc1cc2ccc(-c3ccc(C(=O)O)cc3)cc2cc1C12CC3CC(CC(C3)C1)C2 [CD2665, reference compound]
Impact of antagonist alone on TRC growth (B16-F1 TRCs [2]): no impact on TRC growth | Rescue of TRC growth from inhibitory effects of Tazarotene by pretreatment (B16-F1 TRCs [2]): rescuing effect was minimal | Rescue of TRC growth from inhibitory effects of WYC-209 by pretreatment (B16-F1 TRCs [2]): rescued the TRC growth

CC(=O)N1CCN(c2ccc(OCC3COC(Cn4ccnc4)(c4ccc(Cl)cc4Cl)O3)cc2)CC1 (centres unmarked) [Ketoconazole, reference compound]
solubility at 1 h (Water solubility; PBS (pH 7.4)): 49.3 µM (≈ 26.2 µg/mL)

CC(C)NCC(O)COc1cccc2ccccc12 (centres unmarked) [Propranolol, reference compound]
solubility at 1 h (Water solubility): > 100 µM

CCOC(=O)c1ccc(C#Cc2ccc3c(c2)C(C)(C)CCS3)nc1 [Tazarotene, reference compound]
Decrease of S phase of TRCs (B16-F1 TRCs [3]): ~ 45% | Growth inhibition at 10 μM (B16-F1 TRCs [2]; 10 μM, treated on day 0, day 5, 10 µM): 71% | inhibition at 10 µM (B16-F1 TRCs [2]; [5]): 71.2% | pIC50 (B16-F1 TRCs [2]; Mus musculus, B16-F1 in 90-Pa fibrin gels, treated on day 0, colony size on day 5): 5.76

N.N.[Cl][Pt][Cl] [cisplatin]
TRCs not killed (melanoma TRCs): 20–30%

COc1cccc2c1C(=O)c1c(O)c3c(c(O)c1C2=O)C[C@@](O)(C(=O)CO)C[C@@H]3O[C@H]1C[C@H](N)[C@H](O)[C@H](C)O1 [doxorubicin]
TRCs not killed (melanoma TRCs): 20–30%

COc1ccc2[nH]c([S+]([O-])Cc3ncc(C)c(OC)c3C)nc2c1 (centres unmarked) [omeprazole, reference compound]
pIC50 (CYP 2C19): 5.30

COC(=O)CC[C@H](NC(=O)[C@H](CC(=O)OC)NC(=O)OCc1ccccc1)C(=O)N[C@H](C(=O)N[C@@H](CC(=O)OC)C(=O)CF)C(C)C [z-DEVD-FMK, reference compound]
Rescue of A375 TRC growth from WYC-209 inhibition by pretreatment [4]: substantially rescued growth | Rescue of TRC growth from inhibitory effects of Tazarotene by pretreatment (B16-F1 TRCs [2]): could not rescue growth | Rescue of TRC growth from inhibitory effects of WYC-209 by pretreatment (B16-F1 TRCs [2]): substantially rescued growth
